From patent publication US20210115104A1, “AMYLIN ANALOGUES” (Zealand Pharma A/S, priority 2015, published 2021)
*1 amine or outer side, *2 acyl side, *3 side chain or, on linkers, in order; H or OH if unused. Where a SMILES comes first, the peptide text is derived from it. Bridges are numbered along the chain shown (N, C = ends). [ ]: non-standard residue; d: D form. The star is where a group is joined. C20 diacid = O=C(O)CCCCCCCCCCCCCCCCCCC(=O)*; γGlu = O=C(O)[C@H](CCC(=O)[*:2])N[*:1]; Hyp = O=C(O)[C@@H]1C[C@@H](O)CN1; NMeI = CC[C@H](C)[C@H](NC)C(=O)O; Sar = CNCC(=O)O

Columns and labels:
[1] = biological target: T1, human amylin receptor 3 (hAMYR3), hCTR2 co-expressed with hRAMP3 (Homo sapiens, UniProt O60896+P30988); experiment: hAMYR3 cAMP assay (AlphaScreen) in COS7 cells; format: cell-based; settings: cAMP induction, COS7 cells expressing hAMYR3; Table 1; read-out: hAMYR3 EC50
T1 construct: expressed in transfected cells
T1 sequence (P30988 25-474): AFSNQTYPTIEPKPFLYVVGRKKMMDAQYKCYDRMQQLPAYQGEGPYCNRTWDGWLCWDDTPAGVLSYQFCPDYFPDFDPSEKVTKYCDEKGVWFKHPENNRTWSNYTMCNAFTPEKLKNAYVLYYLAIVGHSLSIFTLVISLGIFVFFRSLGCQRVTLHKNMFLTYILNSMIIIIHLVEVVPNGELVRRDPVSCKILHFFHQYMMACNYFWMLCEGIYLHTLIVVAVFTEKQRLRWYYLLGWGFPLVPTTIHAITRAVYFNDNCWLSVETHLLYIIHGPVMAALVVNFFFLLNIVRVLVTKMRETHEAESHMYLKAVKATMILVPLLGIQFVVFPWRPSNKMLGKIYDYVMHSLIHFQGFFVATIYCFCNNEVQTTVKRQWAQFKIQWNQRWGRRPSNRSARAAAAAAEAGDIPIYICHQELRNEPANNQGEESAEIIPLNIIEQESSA
T1 sequence (O60896 24-148 partner): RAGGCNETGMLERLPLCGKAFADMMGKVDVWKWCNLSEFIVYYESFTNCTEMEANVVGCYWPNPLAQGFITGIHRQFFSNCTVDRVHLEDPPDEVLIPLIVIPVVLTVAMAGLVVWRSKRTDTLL
Procedure, shortened: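 EC50 values derive from 4PL curve fits of cAMP (AlphaScreen) in lysates of RAMP-naive COS7 cells stably carrying hCTR2 plus hRAMP3. Peptide dilution series were applied for 15 min at 37 °C in pH 7.4 Tyrode buffer containing 100 µM IBMX and 0.1% casein.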

[2] = Assessment of chemical stability (RP-HPLC normalized purity); format: physicochemical; settings: 7 days, 40° C., Table 1; for Normalized purity after 7 days, 40° C., pH 4: pH 4, 0.2 mg/ml; for Normalized purity after 7 days, 40° C., pH 6: pH 6, 0.2 mg/ml; for Normalized purity after 7 days, 40° C., pH 7.5: pH 7.5, 0.2 mg/ml; for Normalized purity after 7 days, 40° C., pH 9: pH 9, 0.2 mg/ml
Procedure, shortened: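 Purity after 7 days at 40° C is expressed relative to T=0 (set to 100) for each pH. Samples at 0.2 mg/ml, pH 4, 6, 7.5 or 9, analyzed by RP-HPLC with UV 220 nm on C8 (ammonium formate) or C18 (TFA) gradients.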

[3] = biological target: T2, human calcitonin receptor (hCTR2) (Homo sapiens, UniProt P30988); experiment: hCTR2 cAMP assay (AlphaScreen) in COS7 cells; format: cell-based; settings: cAMP induction, COS7 cells expressing hCTR2; Table 1; read-out: hCTR2 EC50
T2 construct: expressed in transfected cells
T2 sequence (P30988 25-474): T1 sequence (P30988 25-474)
Procedure, shortened: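 cAMP induction, read by AlphaScreen after lysis, gives EC50 values via 4PL curve fitting. Peptides were applied at rising concentrations for 15 min at 37 °C, with IBMX and 0.1% casein in HEPES-buffered Tyrode pH 7.4, to COS7 cells (no endogenous RAMPs) stably expressing human CTR2.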

[4] = Assessment of physical stability (Thioflavin T fibrillation); format: physicochemical; design: key: FND = fibrillation not detected; FD = fibrillation detected; settings: 1 mg/ml, 40° C., ThT; for Fibrillation pH 4.0 (Ac): 50 mM acetate buffer pH 4.0, 96 hours; for Fibrillation pH 7.0 (His): 50 mM histidine buffer pH 7.0, 96 hours; for Fibrillation pH 7.0 (Phos.): 50 mM phosphate buffer pH 7.0, 96 hours
Procedure, shortened: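 Fibrillation lag-time, in hours, taken where regressions of the initial stable phase and the growth phase intersect. ThT (40 μM) fluorescence monitored at 40 °C for 96 h, 10-min reads each preceded by 300 s mixing. Peptide at 1 mg/ml in 50 mM buffers: phosphate or histidine pH 7.0, acetate pH 4.0.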

Row | EC50 [1] [nM] | Normalized purity after 7 days, 40° C., pH 4 [2] | Normalized purity after 7 days, 40° C., pH 6 [2] | Normalized purity after 7 days, 40° C., pH 7.5 [2] | Normalized purity after 7 days, 40° C., pH 9 [2] | EC50 [3] [nM] | Fibrillation pH 4.0 (Ac) [4] | Fibrillation pH 7.0 (His) [4] | Fibrillation pH 7.0 (Phos.) [4] | SMILES
1 | 0.14 | A (A = >90%) | A (A = >90%) | B (B = 70-90%) | B (B = 70-90%) | 0.08 | FND | FND | FND | CC[C@H](C)[C@@H](C(=O)N[C@@H](CC(C)C)C(=O)N[C@@H](CO)C(=O)N[C@@H](CO)C(=O)N[C@H](C(=O)N[C@@H](CCC(=O)O)C(=O)N[C@H](C(=O)NCC(=O)N[C@@H](CO)C(=O)N[C@@H](CC(N)=O)C(=O)N[C@H](C(=O)N1C[C@H](O)C[C@H]1C(N)=O)[C@@H](C)O)C(C)C)[C@@H](C)O)N(C)C(=O)[C@H](C)NC(=O)CN(C)C(=O)[C@H](Cc1ccccc1)NC(=O)[C@H](CO)NC(=O)[C@H](CO)NC(=O)[C@H](CCCNC(=N)N)NC(=O)[C@H](CCC(N)=O)NC(=O)[C@H](CC(C)C)NC(=O)[C@H](Cc1ccccc1)NC(=O)[C@H](CC(=O)O)NC(=O)[C@H](C)NC(=O)[C@H](CC(C)C)NC(=O)[C@H](CCCNC(=N)N)NC(=O)[C@H](CCC(=O)O)NC(=O)[C@@H](NC(=O)[C@H](C)NC(=O)[C@@H]1CSSC[C@H](NC(=O)[C@H](CCCNC(=N)N)NC(=O)CC[C@H](NC(=O)CCCCCCCCCCCCCCCCCCC(=O)O)C(=O)O)C(=O)NCC(=O)N[C@@H]([C@@H](C)O)C(=O)N[C@@H](C)C(=O)N[C@@H]([C@@H](C)O)C(=O)N1)[C@@H](C)O [Compound 54, [19CD]-isoGlu-R-C( )-GTAT-C( )-ATERLADFLQRSSF-Gly(Me)-A-Ile(Me)-LSSTEVGSNT-Hyp-NH2] ({C20 diacid-γGlu}-RCGTATCATERLADFLQRSSF[Sar]A[NMeI]LSSTEVGSNT[Hyp]-NH2; disulfide 2-7)
2 | 0.08 | A (A = >90%) | A (A = >90%) | A (A = >90%) | B (B = 70-90%) | 0.06 | FND | FND | FND | CC[C@H](C)[C@@H](C(=O)N[C@@H](CC(C)C)C(=O)N[C@@H](CO)C(=O)N[C@@H](CO)C(=O)N[C@H](C(=O)N[C@@H](CCC(=O)O)C(=O)N[C@H](C(=O)NCC(=O)N[C@@H](CO)C(=O)N[C@@H](CC(N)=O)C(=O)N[C@H](C(=O)N1C[C@H](O)C[C@H]1C(N)=O)[C@@H](C)O)C(C)C)[C@@H](C)O)N(C)C(=O)[C@H](C)NC(=O)CN(C)C(=O)[C@H](Cc1ccccc1)NC(=O)[C@H](CO)NC(=O)[C@H](CO)NC(=O)[C@H](CCCNC(=N)N)NC(=O)[C@H](CCC(N)=O)NC(=O)[C@H](CC(C)C)NC(=O)[C@H](Cc1ccccc1)NC(=O)[C@H](Cc1c[nH]cn1)NC(=O)[C@H](C)NC(=O)[C@H](CC(C)C)NC(=O)[C@H](CCCNC(=N)N)NC(=O)[C@H](CCC(=O)O)NC(=O)[C@@H](NC(=O)[C@H](C)NC(=O)[C@@H]1CSSC[C@H](NC(=O)[C@H](CCCNC(=N)N)NC(=O)CC[C@H](NC(=O)CCCCCCCCCCCCCCCCCCC(=O)O)C(=O)O)C(=O)N[C@@H](CC(N)=O)C(=O)N[C@@H]([C@@H](C)O)C(=O)N[C@@H](C)C(=O)N[C@@H]([C@@H](C)O)C(=O)N1)[C@@H](C)O [Compound 56, [19CD]-isoGlu-R-C( )-NTAT-C( )-ATERLAHFLQRSSF-Gly(Me)-A-Ile(Me)-LSSTEVGSNT-Hyp-NH2] ({C20 diacid-γGlu}-RCNTATCATERLAHFLQRSSF[Sar]A[NMeI]LSSTEVGSNT[Hyp]-NH2; disulfide 2-7)
3 | 0.11 | A (A = >90%) | B (B = 70-90%) | C (C = <70%) | B (B = 70-90%) | 0.03 | FND | FD | FD | CC[C@H](C)[C@@H](C(=O)N[C@@H](CC(C)C)C(=O)N[C@@H](CO)C(=O)N[C@@H](CO)C(=O)N[C@H](C(=O)N[C@@H](CC(=O)O)C(=O)N[C@H](C(=O)NCC(=O)N[C@@H](CO)C(=O)N[C@@H](CC(N)=O)C(=O)N[C@H](C(=O)N1C[C@H](O)C[C@H]1C(N)=O)[C@@H](C)O)C(C)C)[C@@H](C)O)N(C)C(=O)[C@H](C)NC(=O)CN(C)C(=O)[C@H](Cc1ccccc1)NC(=O)[C@H](CO)NC(=O)[C@H](CO)NC(=O)[C@H](CCCNC(=N)N)NC(=O)[C@H](CCC(N)=O)NC(=O)[C@H](CC(C)C)NC(=O)[C@H](Cc1ccccc1)NC(=O)[C@H](Cc1c[nH]cn1)NC(=O)[C@H](C)NC(=O)[C@H](CC(C)C)NC(=O)[C@H](CCCNC(=N)N)NC(=O)[C@H](CC(=O)O)NC(=O)[C@@H](NC(=O)[C@H](C)NC(=O)[C@@H]1CSSC[C@H](NC(=O)[C@H](CCCNC(=N)N)NC(=O)CC[C@H](NC(=O)CCCCCCCCCCCCCCCCCCC(=O)O)C(=O)O)C(=O)N2CCC[C@H]2C(=O)N[C@@H]([C@@H](C)O)C(=O)N[C@@H](C)C(=O)N[C@@H]([C@@H](C)O)C(=O)N1)[C@@H](C)O [Compound 59, [19CD]-isoGlu-R-C( )-PTAT-C( )-ATDRLAHFLQRSSF-Gly(Me)-A-Ile(Me)-LSSTDVGSNT-Hyp-NH2] ({C20 diacid-γGlu}-RCPTATCATDRLAHFLQRSSF[Sar]A[NMeI]LSSTDVGSNT[Hyp]-NH2; disulfide 2-7)
4 | 0.09 | A (A = >90%) | A (A = >90%) | A (A = >90%) | B (B = 70-90%) | 0.08 | FND | FND | FND | CC[C@H](C)[C@@H](C(=O)N[C@@H](CC(C)C)C(=O)N[C@@H](CO)C(=O)N[C@@H](CO)C(=O)N[C@H](C(=O)N[C@@H](CCC(=O)O)C(=O)N[C@H](C(=O)NCC(=O)N[C@@H](CO)C(=O)N[C@@H](CC(=O)O)C(=O)N[C@H](C(=O)N1C[C@H](O)C[C@H]1C(N)=O)[C@@H](C)O)C(C)C)[C@@H](C)O)N(C)C(=O)[C@H](C)NC(=O)CN(C)C(=O)[C@H](Cc1ccccc1)NC(=O)[C@H](CO)NC(=O)[C@H](CO)NC(=O)[C@H](CCCNC(=N)N)NC(=O)[C@H](CCC(N)=O)NC(=O)[C@H](CC(C)C)NC(=O)[C@H](Cc1ccccc1)NC(=O)[C@H](Cc1c[nH]cn1)NC(=O)[C@H](C)NC(=O)[C@H](CC(C)C)NC(=O)[C@H](CCCNC(=N)N)NC(=O)[C@H](CCC(=O)O)NC(=O)[C@@H](NC(=O)[C@H](C)NC(=O)[C@@H]1CSSC[C@H](NC(=O)[C@H](CCCNC(=N)N)NC(=O)CC[C@H](NC(=O)CCCCCCCCCCCCCCCCCCC(=O)O)C(=O)O)C(=O)N[C@@H](CC(N)=O)C(=O)N[C@@H]([C@@H](C)O)C(=O)N[C@@H](C)C(=O)N[C@@H]([C@@H](C)O)C(=O)N1)[C@@H](C)O [Compound 60, [19CD]-isoGlu-R-C( )-NTAT-C( )-ATERLAHFLQRSSF-Gly(Me)-A-Ile(Me)-LSSTEVGSDT-Hyp-NH2] ({C20 diacid-γGlu}-RCNTATCATERLAHFLQRSSF[Sar]A[NMeI]LSSTEVGSDT[Hyp]-NH2; disulfide 2-7)
